This note sets out measurements from paper PMC6792352, “Limited Chemical Structural Diversity Found to Modulate Thyroid Hormone Receptor in the Tox21 Chemical Library” (Environmental Health Perspectives, 2019).

Structures can show the parent of a compound that is named as a salt.

One data set is described as follows: in vitro. Conditions: rat, gh3-tre-luc cells, AC50 (uM) modified / 1000.
As to `Cc1cccc(C)c1O` [2,6-Dimethylphenol], the cytotoxic concentration (CC50) (usually the concentration giving 50% cytotoxicity) at 24 h is above 90 µM. On to `O=C(O)c1ccc2cc(C(=O)O)ccc2c1` [2,6-Naphthalenedicarboxylic acid], for which the half-maximal cytotoxic concentration (CC50) at 24 h was above 90 µM. The same measure, in the same setting: in the case of `O=C(O)c1cccc(C(=O)O)n1` [2,6-Pyridinedicarboxylic acid] it was above 90 µM; in that of `Cc1c(N)cccc1N` [2,6-Toluenediamine], above 90 µM; in that of `Cc1cccc2sc3nncn3c12` [2,7,8,9-Tricyclazole], above 90 µM. The molecule `CC(=O)Nc1ccc2c(c1)Cc1cc(NC(C)=O)ccc1-2` [2,7-Acetylaminofluorene] yielded a half-maximal cytotoxic concentration (CC50) at 24 h above 90 µM. Take `CC(C)CCC(=O)CCC(C)C` [2,8-Dimethylnonan-5-one]: the CC50 at 24 h is above 90 µM. Still for that read-out and setting: as for `CCCC(C)c1ccccc1O` (stereo not drawn) [2-(1-Methylbutyl)phenol], the figure is 54.4 µM. `CC(Oc1cc(Cl)c(Cl)cc1Cl)C(=O)O` (stereo not drawn) [2-(2,4,5-Trichlorophenoxy)propionic acid] had a CC50 at 24 h above 90 µM. `CC(C)(C)C1(CCc2ccc(Cl)cc2)CO1` (stereo not drawn) [2-(2-(4-Chlorophenyl)ethyl)-2-(1,1-dimethylethyl)oxirane] showed a 50% cytotoxic concentration (CC50) at 24 h above 90 µM.

`NCCOCCO` [2-(2-Aminoethoxy)ethanol] had a CC50 at 24 h above 90 µM. For `CCCCOCCOCCO` [2-(2-Butoxyethoxy)ethanol], the CC50 at 24 h is above 90 µM. Take `CCCCOCCOCCOC(C)=O` [2-(2-Butoxyethoxy)ethyl acetate]: the CC50 at 24 h was above 90 µM. In the case of `CCCCOCCOCCSC#N` [2-(2-Butoxyethoxy)ethyl thiocyanate], the CC50 at 24 h was above 100 µM. As to `CCC(C)C1N=C(C)C(C)S1` (stereo not drawn) [2-(2-Butyl)-4,5-dimethyl-3-thiazoline], the cytotoxic concentration (CC50) at 24 h is above 90 µM. Take `CCOCCOCCO` [2-(2-Ethoxyethoxy)ethanol]: the CC50 at 24 h was above 90 µM. `CCOCCOCCOC(C)=O` [2-(2-Ethoxyethoxy)ethyl acetate] showed a cytotoxic concentration (CC50) at 24 h above 90 µM. The same measure, in the same setting: in the case of `C=CC(=O)OCCOCCOCC` [2-(2-Ethoxyethoxy)ethyl prop-2-enoate] it was above 90 µM; in that of `CCCCC(CC)COCCO` (stereo not drawn) [2-(2-Ethylhexyloxy)ethanol], above 90 µM.

`CCC(C)(C)C1CCCCC1OC(C)=O` (stereo not drawn) [2-(2-Methylbutan-2-yl)cyclohexyl acetate] gave a CC50 at 24 h above 90 µM. `CC(C)Cc1nccs1` [2-(2-Methylpropyl)thiazole]: the CC50 at 24 h is above 90 µM. On the same count and under the same terms, as for `O=[N+]([O-])c1ccccc1CCO` [2-(2-Nitrophenyl)ethanol], the figure is above 90 µM; as for `CCCOCCOCCO` [2-(2-Propoxyethoxy)ethanol], above 90 µM. Still for that read-out and setting: in the case of `CCC(C)(C)c1cc(-n2nc3ccccc3n2)c(O)c(C(C)(C)CC)c1` [2-(2H-Benzotriazol-2-yl)-4,6-bis(1,1-dimethylpropyl)phenol] it was above 90 µM; in that of `CC(C)(c1ccccc1)c1cc(-n2nc3ccccc3n2)c(O)c(C(C)(C)c2ccccc2)c1` [2-(2H-Benzotriazol-2-yl)-4,6-bis(1-methyl-1-phenylethyl)phenol], above 50 µM; in that of `Cc1ccc(O)c(-n2nc3ccccc3n2)c1` [2-(2H-Benzotriazol-2-yl)-4-methylphenol], above 90 µM. `c1ccc(CCCc2ccccn2)cc1` [2-(3-Phenylpropyl)pyridine] came in with a half-maximal cytotoxic concentration (CC50) at 24 h above 90 µM.

Turning to `Oc1ccc(Cc2ccccc2O)cc1` [2-(4-Hydroxybenzyl)phenol], the half-maximal cytotoxic concentration (CC50) at 24 h is above 90 µM. In turn, `O=[N+]([O-])c1ccc(CCO)cc1` [2-(4-Nitrophenyl)ethanol] came in with a 50% cytotoxic concentration (CC50) at 24 h above 90 µM. The same measure, in the same setting: in the case of `CCCCCCCCC=CCCCCCCCC1=NCCN1CCO` [2-(8-Heptadecenyl)-2-imidazoline-1-ethanol] it was 23.2 µM. The same measure, in the same setting: as for `CN(C)Cc1ccccc1O` [2-((Dimethylamino)methyl)phenol], the figure is above 90 µM; as for `CCC(C)c1ccccc1O` (stereo not drawn) [2-(Butan-2-yl)phenol], above 90 µM. On the same count and under the same terms, in the case of `O=C1c2ccccc2C(=O)N1CCl` [2-(Chloromethyl)-1H-isoindole-1,3(2H)-dione] it was above 90 µM; in that of `ClCc1ccccn1` [2-(Chloromethyl)pyridine hydrochloride], above 90 µM. As to `CCCCN(CCO)CCCC` [2-(Dibutylamino)ethanol], the cytotoxic concentration (CC50) at 24 h is above 90 µM.

Turning to `C=C(C)C(=O)OCCN(CC)CC` [2-(Diethylamino)ethyl methacrylate], the cytotoxic concentration (CC50) at 24 h is above 90 µM. The molecule `CN(C)C(C)(C)CO` [2-(Dimethylamino)-2-methylpropan-1-ol] had a CC50 at 24 h above 90 µM. `C=CC(=O)OCC[N+](C)(C)C` [2-(Dimethylamino)ethyl acrylate methochloride]: the 50% cytotoxic concentration (CC50) at 24 h is above 90 µM. For the molecule `C=CC(=O)OCCN(C)C` [2-(Dimethylamino)ethyl acrylate], the CC50 at 24 h was above 90 µM.

`C=C(C)C(=O)OCCN(C)C` [2-(Dimethylamino)ethyl methacrylate] showed a CC50 at 24 h above 90 µM. The molecule `CCCCCCCCCCCCOCCO` [2-(Dodecyloxy)ethanol] displayed a CC50 at 24 h above 90 µM. `CCN(CC#N)c1cccc(C)c1` [2-(Ethyl(3-methylphenyl)amino)acetonitrile] had a CC50 at 24 h above 90 µM. `CCNCCO` [2-(Ethylamino)ethanol] showed a CC50 at 24 h above 90 µM.

`O=C1c2ccccc2C(=O)N1CO` [2-(Hydroxymethyl)-1H-Isoindole-1,3(2H)-dione] registered a CC50 at 24 h above 90 µM.

With `CC(CO)(CO)CO` [2-(Hydroxymethyl)-2-methyl-1,3-propanediol], the CC50 at 24 h is above 90 µM.

In the case of `O=[N+]([O-])C(CO)(CO)CO` [2-(Hydroxymethyl)-2-nitro-1,3-propanediol], the 50% cytotoxic concentration (CC50) at 24 h is above 90 µM.

The molecule `CCN(CCO)c1cccc(C)c1` [2-(N-Ethyl-m-toluidino)ethanol] gave a half-maximal cytotoxic concentration (CC50) at 24 h above 90 µM.

`Nc1ccccc1S(=O)(=O)c1ccccc1` [2-(Phenylsulfonyl)aniline]: the cytotoxic concentration (CC50) at 24 h was above 90 µM. With `CC(C)c1ccc2sc3ccccc3c(=O)c2c1` [2-(Propan-2-yl)-9H-thioxanthen-9-one], the 50% cytotoxic concentration (CC50) at 24 h was above 90 µM.

Turning to `OCCc1ccccn1` [2-(Pyridin-2-yl)ethanol], the CC50 at 24 h was above 90 µM. Molecule `OCCc1ccncc1` [2-(Pyridin-4-yl)ethanol] came in with a 50% cytotoxic concentration (CC50) at 24 h above 90 µM.

With `N#CSCSc1nc2ccccc2s1` [2-(Thiocyanomethylthio)benzothiazole], the CC50 at 24 h is 3.06 µM. Turning to `NS(=O)(=O)c1ccccc1OC(F)(F)F` [2-(Trifluoromethoxy)benzenesulfonamide], the CC50 at 24 h was above 90 µM.

The molecule `CC(C)(C)NCCO` [2-(tert-Butylamino)ethanol] returned a cytotoxic concentration (CC50) at 24 h above 90 µM. Molecule `C=C(C)C(=O)OCCNC(C)(C)C` [2-(tert-Butylamino)ethyl 2-methylprop-2-enoate] displayed a CC50 at 24 h above 90 µM. The same measure, in the same setting: as for `OCCC1CCCCN1` (stereo not drawn) [2-?Piperidineethanol], the figure is above 90 µM; as for `CC(=O)Nc1ccccc1O` [2-Acetamidophenol], above 90 µM; as for `CC(=O)Oc1ccc([N+](=O)[O-])cc1CCl` [2-Acetoxy-5-nitrobenzyl chloride], 67 µM. Consider `CC(=O)c1ccc2c(c1)Cc1ccccc1-2` [2-Acetylfluorene], for which the CC50 at 24 h is above 90 µM.

For `CC(=O)c1ccccn1` [2-Acetylpyridine], the 50% cytotoxic concentration (CC50) at 24 h was above 90 µM. Still for that read-out and setting: in the case of `CC(=O)c1ccc[nH]1` [2-Acetylpyrrole] it was above 90 µM.

As to `CC(=O)c1nccs1` [2-Acetylthiazole], the cytotoxic concentration (CC50) at 24 h is above 90 µM. In turn, `C=CC(=O)NC(C)(C)CS(=O)(=O)O` [2-Acrylamido-2-methyl-1-propanesulfonic acid] had a CC50 at 24 h above 90 µM.

`C=CCc1ccccc1O` [2-Allylphenol]: the half-maximal cytotoxic concentration (CC50) at 24 h is above 90 µM.

As for `Nc1ccc2ccccc2c1S(=O)(=O)O` [2-Amino-1-naphthalenesulfonic acid], the half-maximal cytotoxic concentration (CC50) at 24 h is above 90 µM. `Nc1cc(S(=O)(=O)O)ccc1O` [2-Amino-1-phenol-4-sulfonic acid] had a CC50 at 24 h above 90 µM. The molecule `CC(C)CC(C)(N)C#N` (stereo not drawn) [2-Amino-2,4-dimethylpentanenitrile] displayed a CC50 at 24 h above 90 µM.

With `CCC(N)(CO)CO` [2-Amino-2-ethyl-1,3-propanediol], the 50% cytotoxic concentration (CC50) at 24 h is above 90 µM. In turn, `CC(C)(N)CO` [2-Amino-2-methylpropan-1-ol] came in with a CC50 at 24 h above 90 µM.

For the molecule `CC(C)(N)C#N` [2-Amino-2-methylpropionitrile], the 50% cytotoxic concentration (CC50) at 24 h was above 90 µM. `Nc1nc(Cl)cc(Cl)n1` [2-Amino-4,6-dichloropyrimidine] returned a CC50 at 24 h above 90 µM.

The molecule `Nc1nc(-c2ccc([N+](=O)[O-])cc2)cs1` [2-Amino-4-(p-nitrophenyl)thiazole] returned a CC50 at 24 h above 90 µM.

`Cc1cc(S(=O)(=O)O)c(N)cc1Cl` [2-Amino-4-chloro-5-methylbenzenesulfonic acid] came in with a cytotoxic concentration (CC50) at 24 h above 90 µM. On to `Nc1cc(Cl)c([N+](=O)[O-])cc1O` [2-Amino-4-chloro-5-nitrophenol], for which half-maximal cytotoxicity (CC50 at 24 h) was put at 36.9 µM.

Take `Nc1cc(Cl)ccc1O` [2-Amino-4-chlorophenol]: half-maximal cytotoxicity (CC50 at 24 h) was put at 30.7 µM.

Regarding `COc1cccc2sc(N)nc12` [2-Amino-4-methoxybenzothiazole], the cytotoxic concentration (CC50) at 24 h was above 90 µM.

For `Cc1cccc2sc(N)nc12` [2-Amino-4-methylbenzothiazole], the 50% cytotoxic concentration (CC50) at 24 h was above 90 µM. Take `Cc1ccc(O)c(N)c1` [2-Amino-4-methylphenol]: it took 33.5 µM to reach half-maximal cytotoxicity (CC50 at 24 h).

The same data set, now with this note: rat, gh3-tre-luc cells, AC50 (uM) modified / 1000, Tox21_110001=Tox21_200693; viability, 1 nM T3 present, 24 h.
Turning to `Cn1c(N)nc2c3cccnc3ccc21` [2-Amino-3-methyl-3H-imidazo[4,5-f]quinoline], the half-maximal cytotoxic concentration (CC50) at 24 h was 36.1 µM.

Staying with this data set, now noted: rat, gh3-tre-luc cells, AC50 (uM) modified / 1000, Tox21_110001=Tox21_200830; viability, 1 nM T3 present, 24 h.
For `CC(=O)Nc1ccc2c(c1)Cc1ccccc1-2` [2-Acetylaminofluorene], the CC50 at 24 h was above 90 µM.

Staying with this data set, now noted: rat, gh3-tre-luc cells, AC50 (uM) modified / 1000, Tox21_110001=Tox21_302196; viability, 1 nM T3 present, 24 h.
`CC(C)C(C)(N)C#N` (stereo not drawn) [2-Amino-2,3-dimethylbutanenitrile] yielded a CC50 at 24 h above 90 µM.
